# Measured values as given in paper PMC12084297, “Cytoplasmic connexin43-microtubule interactions promote glioblastoma stem-like cell maintenance and tumorigenicity” (Cell Death & Disease, 2025).
# “Also recorded” adds a separate entry of the source.
# Tests used:
# VTC-034 GSCs = test: MTS viability, VTC-034 GSCs; type: cell-based, human; conditions: VTC-034 adherent GSCs, 10, 50 or 100 μM, 4 days
# Method: (§1) Cells were plated in 96-well plates (2000–5000 cells per well) and treated the following day with TMZ (10, 50, or 100 μM), antennapedia, JM2-scrambled, or JM2 (10, 50, or 100 μM). After 4 days, cell viability was monitored following addition of MTS reagent (Promega) according to manufacturer’s instructions. The absorbance at 490 nm was measured using a SpectraMax i3 or iD3 microplate reader (Molecular Devices). For the caspase 3/7 activity assay, cells were plated in 96-well plates (2000 cells per well) and treated with TMZ or peptides as described above. The activity of caspase 3/7 was measured after 48 h using the Caspase-Glo® 3/7 assay (Promega) following the manufacturer’s instructions. Fold change of caspase 3/7 activity was defined as the ratio of caspase 3/7 luminescence in treated cells compared to controls.
# normal human astrocytes = test: MTS viability, human astrocytes; type: cell-based; conditions: 100 μM, 4 days
# Method: as §1
# LN229/GSC tumor = LN229/GSC tumor growth in mouse flank; type: in vivo, mouse (BALB/c nude), human LN229/GSC cells
# Description: Animal studies were approved by the Institutional Animal Care and Use Committee (IACUC) of Virginia Tech. Female athymic nude mice (Envigo) aged 6-8 weeks were used for the maintenance and propagation of PDX GBM22 cells. PDX GBM22 tumors were maintained by serial passage in nude mouse flanks as described previously. Briefly, tumors were harvested 14–18 days post-injection and glioblastoma cells were mechanically and enzymatically dissociated. Cells were passed through a 40 µm filter and maintained as gliospheres in DMEM/F-12 without phenol red and with L-glutamine (Thermo Fisher), supplemented with 10 ng/ml fibroblast growth factor (Thermo Fisher), 10 ng/ml epidermal growth factor (Thermo Fisher), Gibco B-27 Supplement without vitamin A (Thermo Fisher), amphotericin (Fisher), and gentamycin (Fisher). The medium was changed daily for 2 days. […] After 2 days, tumors were measured and mice were randomly separated into three groups (7 mice per group), and vehicle/control (PBS), JM2-scrambled or JM2 were administered at 300 μM intratumorally every day for 14 days. Tumors were then measured by blinded investigators and harvested for analysis (see section below). Tumor volume was calculated using the formula (length × width^2)/2. […] After 7 days, tumors were measured and mice were randomly separated into three groups; vehicle/control (PBS), JM2-scrambled, and JM2 (3 mice per group). […] Tumor sizes were measured by electronic calipers at different times by blinded investigators, and tumor volume was calculated using the formula (length × width^2)/2.
# All quantification was performed on experiments repeated at least three times. […] Data were analyzed for significance using Student’s t test, one-way ANOVA with Tukey’s multiple comparisons test, and presented as mean ± SD. […] Statistical significance between experimental groups was determined using chi-square (χ²) tests within the ELDA framework. […]
# VTC-037 GSCs [1] = test: Gliosphere formation assay, VTC-037 GSCs; type: cell-based, human; conditions: VTC-037, 10, 50 or 100 μM every other day, 2 weeks
# Method: (§2) GSCs and PDX GBM22 cells were plated as single cell suspension in low-attachment 96-well plates (GSCs: 100–500 cells per well; GBM22 cells: 500–2000 cells per well), using methods similar to those reported previously. Cells were then treated with peptides every other day. 2 weeks later, gliospheres were observed using phase contrast microscopy on a Revolve microscope (Echo Laboratories). The number of gliospheres was then determined, while the gliosphere size was assessed by diameter measurement. To evaluate stem cell frequency in GSCs, gliosphere formation assay was performed with limiting cell dilutions with cells plated at varying densities in low-attachment 96-well plates. Cells were treated with peptides every other day, and after 2 weeks, gliosphere-positive wells were observed and scored using phase contrast microscopy on a Revolve microscope. The stem cell frequency was analyzed using the online data analysis program ELDA (Extreme Limiting Dilution Analysis).
# Cx43 = conditions: prior work with JM2; ref [41]; cited from earlier work
# Description: Using JM2, a Cx43 mimetic peptide of Cx43 tubulin-binding domain, we confirm efficient and specific disruption of Cx43-microtubule interaction in GSCs together with decreased self-renewal abilities and enhanced killing of this cancer stem-like cell population, highlighting a novel tumorigenic role for Cx43 in GSCs, and GBM. Thermal shift assays reveal JM2 presents high affinity for both α- and β- tubulin. While chemotherapeutic drugs such as paclitaxel have been used to target microtubule functions as therapeutic agents, many of these therapeutic agents cause significant side-effects. M ...
# VTC-037 GSCs [2] = test: Limiting dilution analysis (ELDA), VTC-037 GSCs; type: cell-based, human; conditions: VTC-037, 100 μM every other day, 2 weeks; compared to JM2-scrambled or control
# Method: as §2
# All quantification was performed on experiments repeated at least three times. Statistical analysis was conducted with GraphPad Prism (GraphPad Software). Data were analyzed for significance using Student’s t test, one-way ANOVA with Tukey’s multiple comparisons test, and presented as mean ± SD. […] Statistical significance between experimental groups was determined using chi-square (χ²) tests within the ELDA framework. […]
# [3] = LN229/GSC model, 300 µM intratumorally every other day, first 31 days, n = 3
sequence,measurement,setting,value
VFFKGVKDRVKGRSD [JM2],GSC survival (MTS),VTC-034 GSCs,"significantly decreased VTC-001, VTC-034, and VTC-037 GSC survival when cultured as adherent cells in a dose-dependent manner"
same,Human astrocyte viability (MTS),normal human astrocytes,"did not observe a decrease in human astrocyte viability, even at higher JM2 concentrations; also recorded: no toxic effect of JM2 on normal human astrocytes in vitro"
same,"Tumor growth, LN229/GSC model","LN229/GSC tumor; 300 μM intratumorally every other day, 24 days, after 33 days, n = 3 mice per group, compared to control or JM2-scrambled",significant decrease in tumor growth
same,"t(87) statistic, rate of tumor growth, JM2 vs Control",LN229/GSC tumor; [3],-5.081
same,"t(87) statistic, rate of tumor growth, JM2 vs JM2-scrambled",LN229/GSC tumor; [3],-3.873
same,GSC-dependent gliosphere formation,VTC-037 GSCs [1],"inhibits VTC-001, VTC-034, and VTC-037 GSC-dependent gliosphere formation in a dose-dependent manner"
same,Gliosphere size (diameter),VTC-037 GSCs [1]; n = 4,significant decrease in gliosphere size
same,Gliosphere number,VTC-037 GSCs [1]; n = 6,"significant decrease in gliosphere size as assessed by diameter measurement (Fig. 6B), and number"
same,Cx43 delivery to the cell surface,Cx43,a loss of Cx43 delivery to the cell surface due to increased Cx43/tubulin complexing
same,GSC frequency / self-renewal (limiting dilution),VTC-037 GSCs [2],"significant decrease in VTC-001, VTC-034, and VTC-037 GSC frequency"
